Measured values from the SangsterLogP compilation.

With `O=C1C(=O)N(c2ccccc2)C(=O)c2ccccc21` the logP was 1.14.
Molecule `CCN1C(=O)C(=O)c2ccccc2C1=O` has a logP of 1.13.
For `CN1C(=O)C(=O)c2ccccc2C1=O`, the logP was 0.6.
`CCN1C(=O)C(=O)c2cc(OC)c(OC)cc2C1=O` gave a logP of 1.31.
With `CCN1C(=O)C(=O)c2c(OC)cccc2C1=O` the logP was 0.9.
Molecule `CCC(C)N1C(=O)C(=O)c2ccccc2C1=O` (configuration not stated) has a logP of 2.15.
`CC(C)N1C(=O)C(=O)c2ccccc2C1=O` showed a logP of 1.6.
Work on `CCN1C(=O)C(=O)c2cccc(OC)c2C1=O` yielded a logP of 0.94.
`CC(C)CN1C(=O)C(=O)c2ccccc2C1=O` showed a logP of 2.08.
`CCN1C(=O)C(=O)c2c(cccc2[N+](=O)[O-])C1=O` showed a logP of 0.82.
`CCN1C(=O)C(=O)c2ccc(OC)cc2C1=O` showed a logP of 1.49.
For `CCN(CC)C(=O)c1cccc2c1C(=O)C(=O)N(CC)C2=O`, the logP was 0.78.
In the case of `CCN1C(=O)C(=O)c2c(OC)cc(OC)cc2C1=O`, the logP is reported as 1.23.
For `CCCCN1C(=O)C(=O)c2ccccc2C1=O`, the logP was 2.18.
`CCN1C(=O)C(=O)c2cc3ccccc3cc2C1=O` showed a logP of 2.46.
Molecule `CCN1C(=O)C(=O)c2c(C(N)=O)cccc2C1=O` has a logP of -0.5.
Molecule `CCOC(=O)c1cccc2c1C(=O)C(=O)N(CC)C2=O` has a logP of 1.31.
`CCNC(=O)c1cccc2c1C(=O)C(=O)N(CC)C2=O` gave a logP of 0.3.
`CCN1C(=O)C(=O)c2c(Cl)cccc2C1=O` showed a logP of 1.43.
`CCCN1C(=O)C(=O)c2ccccc2C1=O` showed a logP of 1.6.
For `CCN1C(=O)C(=O)c2c(C#N)cccc2C1=O`, the logP was 0.41.
With `CCN1C(=O)C(=O)c2ccc(Cl)cc2C1=O` the logP was 1.79.
